Laboratory results published in ChEMBL document CHEMBL5233274, “Current Landscape and Future Perspective of Oxazolidinone Scaffolds Containing Antibacterial Drugs” (J Med Chem, 2021).
In brackets after ≈: the same amount, converted by molar mass.

Key:
Format in all cases: functional
[1] = tested on: Escherichia coli; experiment: Antibacterial activity against Escherichia coli assessed as inhibition of bacterial growth measured per 100 uL incubated for 24 hrs by agar well diffusion method
[2] = tested on: Pseudomonas aeruginosa; experiment: Antibacterial activity against Pseudomonas aeruginosa assessed as inhibition of bacterial growth measured per 100 uL incubated for 24 hrs by agar well diffusion method
[3] = tested on: Staphylococcus aureus; experiment: Antibacterial activity against Staphylococcus aureus assessed as inhibition of bacterial growth measured per 100 uL incubated for 24 hrs by agar well diffusion method
[4] = tested on: Candida albicans; experiment: Antifungal activity against Candida albicans assessed as inhibition of fungal growth incubated measured per 100 uL incubated for 24 hrs by agar well diffusion method
[5] = tested on: Bacillus subtilis; experiment: Antibacterial activity against Bacillus subtilis assessed as inhibition of bacterial growth measured per 100 uL incubated for 24 hrs by agar well diffusion method
[6] = tested on: Saccharomyces cerevisiae; experiment: Antifungal activity against Saccharomyces cerevisiae assessed as inhibition of fungal growth incubated measured per 100 uL incubated for 24 hrs by agar well diffusion method
[7] = tested on: Enterococcus; experiment: Antibacterial activity against vancomycin-resistant Enterococcus assessed as inhibition of bacterial growth by CLSI protocol based method
[8] = tested on: Staphylococcus aureus; experiment: Antibacterial activity against methicillin-resistant Staphylococcus aureus assessed as inhibition of bacterial growth by CLSI protocol based method
[9] = tested on: Staphylococcus aureus; experiment: Antibacterial activity against Staphylococcus aureus ATCC 29213 assessed as inhibition of bacterial growth by CLSI protocol based method
[10] = tested on: Staphylococcus aureus; experiment: Antibacterial activity against Staphylococcus aureus NCIM 5257 assessed as inhibition of bacterial growth incubated for 24 hrs by serial broth dilution method
[11] = tested on: Bacillus subtilis; experiment: Antibacterial activity against Bacillus subtilis NCIM 2097 assessed as inhibition of bacterial growth incubated for 24 hrs by serial broth dilution method
[12] = tested on: Escherichia coli; experiment: Antibacterial activity against Escherichia coli NCIM 2065 assessed as inhibition of bacterial growth incubated for 24 hrs by serial dilution method
[13] = tested on: Pseudomonas aeruginosa; experiment: Antibacterial activity against Pseudomonas aeruginosa NCIM 5210 assessed as inhibition of bacterial growth incubated for 24 hrs by serial dilution method
[14] = tested on: Klebsiella pneumoniae; experiment: Antibacterial activity against Klebsiella pneumoniae NCIM 5289 assessed as inhibition of bacterial growth incubated for 24 hrs by serial dilution method
[15] = tested on: Enterococcus faecalis; experiment: Antibacterial activity against Streptococcus faecalis NCIM 2080 assessed as inhibition of bacterial growth incubated for 24 hrs by serial dilution method
[16] = tested on: Staphylococcus aureus; experiment: Antibacterial activity against methicillin-resistant Staphylococcus aureus assessed as inhibition of bacterial growth incubated for 18 to 24 hrs by CLSI protocol based Tryptic soy broth method; details: time 18-24 hrs
[17] = tested on: Staphylococcus aureus; experiment: Antibacterial activity against Staphylococcus aureus ATCC 25923 assessed as inhibition of bacterial growth incubated for 18 to 24 hrs by CLSI protocol based Tryptic soy broth method; details: time 18-24 hrs
[18] = tested on: Enterococcus faecalis; experiment: Antibacterial activity against Enterococcus faecalis ATCC 29212 assessed as inhibition of bacterial growth incubated for 18 to 24 hrs by CLSI protocol based Tryptic soy broth method; details: time 18-24 hrs
[19] = tested on: Staphylococcus epidermidis; experiment: Antibacterial activity against Staphylococcus epidermidis ATCC 12228 assessed as inhibition of bacterial growth incubated for 18 to 24 hrs by CLSI protocol based Tryptic soy broth method; details: time 18-24 hrs

SMILES: O=C1NC(Cc2ccc(Nc3nc(-c4ccc5ccccc5c4)cs3)cc2)CO1 (configuration not stated)
- MIC [1]: 12.5 µg
- MIC [2]: 12.5 µg
- MIC [3]: 6.25 µg
- MIC [4]: 12.5 µg
- MIC [5]: 25 µg
- MIC [6]: 12.5 µg

SMILES: O=C1NC(Cc2ccc(Nc3nc(-c4cccc(Cl)c4)cs3)cc2)CO1 (configuration not stated)
- MIC [1]: 12.5 µg
- MIC [2]: 12.5 µg
- MIC [3]: 12.5 µg
- MIC [4]: 12.5 µg
- MIC [5]: 12.5 µg
- MIC [6]: 12.5 µg

SMILES: CC(=O)NC[C@H]1CN(c2ccc(N3CCOCC3)c(F)c2)C(=O)O1 [LINEZOLID]
- MIC [7]: 2 µg/mL (≈ 5.93 µM)

SMILES: O=C1NC(Cc2ccc(Nc3nc(-c4ccc(-c5ccccc5)cc4)cs3)cc2)CO1 (configuration not stated)
- MIC [1]: 12.5 µg
- MIC [2]: 12.5 µg
- MIC [3]: 6.25 µg
- MIC [4]: 12.5 µg
- MIC [5]: 6.25 µg
- MIC [6]: 12.5 µg

SMILES: CC(=O)NC[C@H]1CN(c2ccc(N3CCN(/N=C(\C)Cn4c([N+](=O)[O-])cnc4C)CC3)c(F)c2)C(=O)O1
- MIC [7]: 4 µg/mL (≈ 7.74 µM)
- MIC [8]: 1 µg/mL (≈ 1.94 µM)
- MIC [9]: 1 µg/mL (≈ 1.94 µM)

SMILES: CC(=O)NC[C@H]1CN(c2ccc(N3CCN(/N=C/c4ccc([N+](=O)[O-])cc4)CC3)c(F)c2)C(=O)O1
- MIC [7]: 4 µg/mL (≈ 8.26 µM)
- MIC [8]: 4 µg/mL (≈ 8.26 µM)
- MIC [9]: 4 µg/mL (≈ 8.26 µM)

SMILES: O=C1NC(Cc2ccc(Nc3nc(-c4ccc(Cl)cc4)cs3)cc2)CO1 (configuration not stated)
- MIC [1]: 12.5 µg
- MIC [2]: 12.5 µg
- MIC [3]: 6.25 µg
- MIC [4]: 12.5 µg
- MIC [5]: 6.25 µg
- MIC [6]: 12.5 µg

SMILES: C[C@@H]1[C@H](O)[C@@H](C)/C=C/C=C/C=C/C=C/C=C/C=C/C=C/[C@H](O[C@@H]2O[C@H](C)[C@@H](O)[C@H](N)[C@@H]2O)C[C@@H]2O[C@](O)(C[C@@H](O)C[C@@H](O)[C@H](O)CC[C@@H](O)C[C@@H](O)CC(=O)O[C@H]1C)C[C@H](O)[C@H]2C(=O)O [AMPHOTERICIN B]
- MIC [1]: 6.25 µg
- MIC [4]: 6.25 µg

SMILES: CC(=O)NC[C@H]1CN(c2ccc(N3CCN(/N=C/c4ccccc4[N+](=O)[O-])CC3)c(F)c2)C(=O)O1
- MIC [7]: 2 µg/mL (≈ 4.13 µM)
- MIC [8]: 1 µg/mL (≈ 2.06 µM)
- MIC [9]: 2 µg/mL (≈ 4.13 µM)

SMILES: CC(=O)NC[C@H]1CN(c2ccc(N3CCN(/N=C/c4ccc([N+](=O)[O-])s4)CC3)c(F)c2)C(=O)O1
- MIC [7]: 2 µg/mL (≈ 4.08 µM)
- MIC [8]: 1 µg/mL (≈ 2.04 µM)
- MIC [9]: 0.25 µg/mL (≈ 0.51 µM)

SMILES: COc1ccc(/C=C/C(=O)c2ccc(-c3ccc(N4C[C@H](CO)OC4=O)cc3)cc2)cc1
- MIC [10]: 3.12 µg/mL (≈ 7.28 µM)
- MIC [11]: 3.12 µg/mL (≈ 7.28 µM)
- MIC [12]: 3.12 µg/mL (≈ 7.28 µM)
- MIC [13]: 3.12 µg/mL (≈ 7.28 µM)
- MIC [14]: 3.12 µg/mL (≈ 7.28 µM)
- MIC [15]: 3.12 µg/mL (≈ 7.28 µM)

SMILES: COCC(=O)NC[C@H]1CN(c2ccc(OCc3nc(C)c(C)nc3C)c(F)c2)C(=O)O1
- MIC [16]: 32 µg/mL (≈ 74 µM)
- MIC [17]: 128 µg/mL (≈ 296 µM)
- MIC [18]: 128 µg/mL (≈ 296 µM)
- MIC [19]: 32 µg/mL (≈ 74 µM)

SMILES: O=C1NC(Cc2ccc(Nc3nc(-c4ccc([N+](=O)[O-])cc4)cs3)cc2)CO1 (configuration not stated)
- MIC [1]: 12.5 µg
- MIC [2]: 12.5 µg
- MIC [3]: 6.25 µg
- MIC [4]: 12.5 µg
- MIC [5]: 6.25 µg
- MIC [6]: 12.5 µg

SMILES: CC(=O)NC[C@H]1CN(c2ccc(N3CCN(Cc4ccc([N+](=O)[O-])o4)CC3)c(F)c2)C(=O)O1 [RANBEZOLID]
- MIC [7]: 2 µg/mL (≈ 4.33 µM)
- MIC [8]: 2 µg/mL (≈ 4.33 µM)
- MIC [9]: 1 µg/mL (≈ 2.17 µM)

SMILES: Cc1nc(C)c(COc2ccc(N3C[C@H](Cn4ccnn4)OC3=O)cc2)nc1C
- MIC [16]: 32 µg/mL (≈ 81.1 µM)
- MIC [17]: 64 µg/mL (≈ 162 µM)
- MIC [18]: 128 µg/mL (≈ 325 µM)
- MIC [19]: 64 µg/mL (≈ 162 µM)

SMILES: COc1cc(/C=C/C(=O)c2ccc(-c3ccc(N4C[C@H](CO)OC4=O)cc3)cc2)ccc1O
- MIC [10]: 3.12 µg/mL (≈ 7.02 µM)
- MIC [11]: 3.12 µg/mL (≈ 7.02 µM)
- MIC [12]: 3.12 µg/mL (≈ 7.02 µM)
- MIC [13]: 3.12 µg/mL (≈ 7.02 µM)
- MIC [14]: 3.12 µg/mL (≈ 7.02 µM)
- MIC [15]: 3.12 µg/mL (≈ 7.02 µM)

SMILES: O=C(/C=C/c1ccc(Cl)cc1)c1ccc(-c2ccc(N3C[C@H](CO)OC3=O)cc2)cc1
- MIC [10]: 3.12 µg/mL (≈ 7.2 µM)
- MIC [11]: 3.12 µg/mL (≈ 7.2 µM)
- MIC [12]: 3.12 µg/mL (≈ 7.2 µM)
- MIC [13]: 3.12 µg/mL (≈ 7.2 µM)
- MIC [14]: 3.12 µg/mL (≈ 7.2 µM)
- MIC [15]: 3.12 µg/mL (≈ 7.2 µM)

SMILES: CCCCc1cn(C[C@H]2CN(c3ccc(OCc4nc(C)c(C)nc4C)c(F)c3)C(=O)O2)nn1
- MIC [16]: > 128 µg/mL
- MIC [17]: > 128 µg/mL
- MIC [18]: > 128 µg/mL
- MIC [19]: > 128 µg/mL

SMILES: O=C(O)c1cn(C2CC2)c2cc(N3CCNCC3)c(F)cc2c1=O [CIPROFLOXACIN]
- MIC [3]: 6.25 µg
- MIC [5]: 6.25 µg

SMILES: Cc1nc(C)c(COc2ccc(N3C[C@H](Cn4ccnn4)OC3=O)cc2F)nc1C
- MIC [16]: 4 µg/mL (≈ 9.7 µM)
- MIC [17]: 8 µg/mL (≈ 19.4 µM)
- MIC [18]: 32 µg/mL (≈ 77.6 µM)
- MIC [19]: 8 µg/mL (≈ 19.4 µM)

SMILES: CC(=O)NC[C@H]1CN(c2ccc(N3CCN(/N=C/c4ncc(N)n4C)CC3)c(F)c2)C(=O)O1
- MIC [7]: > 8 µg/mL
- MIC [8]: > 8 µg/mL
- MIC [9]: > 8 µg/mL
